Experimental data as given in patent US20210386733A1, “LYSINE-SPECIFIC HISTONE DEMETHYLASE INHIBITORS FOR THE TREATMENT OF MYELOPROLIFERATIVE NEOPLASMS” (Imago Biosciences, Inc., priority 2019, published 2021).
Where a name gives a salt, the structure may show the parent alone.

Test system: patients with high-risk MF
Assay: Phase 1/2A clinical trial of Compound 1 in myelofibrosis (Example 1)
Format: in vivo, human
Excerpt: A multi-center, open-label study evaluating the safety, tolerability, steady-state pharmacokinetics and pharmacodynamics of Compound 1 administered orally once daily in patients with high-risk MF, including primary myelofibrosis (PMF), post-polycythemia vera myelofibrosis (PPV-MF), and post-essential thrombocythemia myelofibrosis (PET-MF) (collectively referred to as ‘MF’) was initiated as a Phase 1/2A study, and was expanded to a Phase 2b study.
The Phase 1/2A portion of the study assessed: the safety of the original starting dose, 0.25 mg/kg/d; an 85-day duration of treatment with a subsequent washout period of up to 28 days; and, pharmacokinetic and drug concentration measurements. […] With transition to a Phase 2b study, changes supported by the earlier pharmacokinetic and pharmacodynamic studies and safety assessments were implemented, including: an increased starting dose of 0.5 mg/kg/d with larger titration increments; a 168-day (24 week) duration of treatment, with continuous dosing via removal of the washout period; elimination of PK and drug concentration sampling; and, a reduced visit schedule.
This study was conducted at multiple sites. Up to 50 patients, eighteen years of age or older, with high-risk myelofibrosis were treated. The primary objectives included safety and tolerability, pharmacokinetics (PK; Phase 1/2A only) and spleen volume reduction (SVR). […] Key inclusion criteria included: high- or intermediate-2 risk myelofibrosis; per the Investigator's judgment have failed (refractory or resistant to, inadequately controlled by or intolerant of), or are not a candidate for, available approved therapy including ruxolitinib; platelet count≥100K/μL; and, circulating blasts ≤10%.
In the Phase 1/2a portion of the study, patients started at the presumed sub-therapeutic dose of 0.25 mg/kg/d. Dose-adjustments were made weekly (the lifespan of a human platelet) with dose-titration, either upward or downward, contingent on platelet values at the time of evaluation. Upward titrations were made in increments of 0.125 or 0.0625 mg/kg/d as shown below. Downward titrations were made in decrements of 50% of the current dose. […] The titration target platelet count expected to be associated with most efficacious therapeutic effect was ≥50,000 to <100,000/μL (50-100×10^9/L). The Phase 1/2a titration and re-challenge rules based on weekly evaluation of platelet counts are noted below in Table 1.
All but one patient had received one or more prior treatments including ruxolitinib. 48% had PMF, 33% PET-MF, 19% PPV-MF. The median patient age was 65 years (48-89) with 58% males. 48% were classified as high risk (IPSS), the remainder, intermediate risk-2. […] A substantial fraction of the patients had ≥3 mutations. Patients were treated daily for 12 weeks, in accordance with above starting dose and titration rules, followed by a washout period of up to 28 days. Starting platelet counts ranged from about 141 to about 1309 k/μL. Bone marrow biopsies and imaging studies of the abdomen were conducted prior to treatment and during the washout period after 12 weeks of dosing. Grading of myelofibrosis was performed centrally using the 2016 revised World Health Organization classification of myeloid neoplasia (Arber et al., 2016); image reading was also performed centrally. The Myeloproliferative Neoplasm Symptom Assessment Form (MPN-SAF) was self-administered at Baseline and weekly from Day 0 through the End of Study (EoS) Visit. Total symptom scores were derived from this tool. Patients for whom clinical benefit was demonstrable could resume treatment for additional 12-week cycles.

[1] = 13 patients with biopsies, Day 0 to Day 84 or EoT
[2] = of the 3 with Hb>10 g/dL at day 0, day 84
[3] = of the 6 transfusion-independent patients with Hb<10 g/dL
[4] = of the 9 transfusion-dependent patients, day 84

With `CN1CCN(C(=O)[C@H](CCCN[C@@H]2C[C@H]2c2ccc(F)cc2)NC(=O)c2ccc(-n3ccnn3)cc2)CC1` [Compound 1, N-[(2S)-5-{[(1R, 2S)-2-(4-fluorophenyl)cyclopropyl]amino}-1-(4-methylpiperazin-1-yl)-1-oxopentan-2-yl]-4-(1H-1,2,3-triazol-1-yl)benzamide, bis-tosylate salt] as the compound, how does the “patients whose bone marrow fibrosis progressed by 1 Grade” value [1] read?
The value was 23%.

And the “patients with a stable bone marrow fibrosis score” value [1]?
The value was 62%.

What about the “patients with bone marrow fibrosis improvement of ≥1 grade” value [1] of the same compound?
Its value is 15%.

And the “28 days expressed in half-lives of the drug” value (at the doses used in this study)?
The value was > 10 half-lives.

And the “spleen volume response (SVR) and total symptom score (TSS) compared with Best Available Treatment (BAT)” value (day 0 to day 84, BAT as in PERSIST-2 trial, FIG. 3)?
Its value is “outperformed the BAT”.

And the “effect on myelofibrosis symptoms” value (evaluable patients N=14, preliminary analysis)?
Its value is “profound effect”.

What about the “range of total daily dose needed to achieve a platelet count in the target range” value (excluding highest and lowest doses) of the same compound?
The value was 53 to 90 mg.

What about the “mean total daily dose needed to achieve a platelet count in the target range” value (excluding highest and lowest doses (4 mg and 100 mg), target 50,000-75,000 platelets per microliter, S.D. 13.8) of the same compound?
The value was 78.3 mg.

And the “mean therapeutic dose per body weight” value (first sixteen patients, assuming an average weight of 75 kg)?
The value was 0.85 mg/kg/day.

And the “overall efficacy on spleen volumes and symptom scores” value (heterogeneous population of MF patients with limited therapeutic options)?
Its value is “effective in reducing spleen volumes and substantially improving symptom scores in a majority of patients”.

And the “improvements in symptom scores” value (human, in vivo)?
The value was “generally dose-dependent and rapid”.

What about the “levels of CCL3, IL-6, IL-10, IL-33, IL-28A, IFNβ, IFNα, IFNγ” value (in the course of treatment) of the same compound?
The value was “not elevated in any patient”.

And the “patients with improved Hb (increase of Hb>1 g/dL)” value [2]?
Its value is 1 patients.

What about the “patients with worsened Hb (decrease of Hb>1 g/dL)” value [2] of the same compound?
Its value is 2 patients.

And the “patients who remained stable (Hb)” value [3]?
The value was 3 patients.

And the “patients who worsened (became transfusion dependent or Hb drop by >1 g/dL)” value [3]?
The value was 2 patients.

And the “patients with improved Hb” value [3]?
The value was 1 patients.

What about the “patients who became transfusion-independent and had improved Hb of >1 g/dL” value (of the 9 transfusion-dependent patients (Hb<10 g/dL), day 84) of the same compound?
Its value is 1 patients.

And the “patients who maintained stable transfusion frequency” value [4]?
The value was 8 patients.

What about the “patients with increased transfusion frequency” value [4] of the same compound?
Its value is “one”.

And the lymphocytes counts (on treatment)?
The lymphocytes counts was “unchanged”.

And the monocyte counts (on treatment)?
The monocyte counts was “generally modestly elevated”.

And the peripheral granulocyte counts (on treatment)?
Its peripheral granulocyte counts is “lower”.

What about the platelet counts (on treatment) of the same compound?
The platelet counts was “reduced platelet counts in all patients”.

And the “mean dose needed to achieve and safely maintain the target platelet count (therapeutic dose)” value (re-analysis of first sixteen patients)?
Its value is 63.8 mg/day.

And the “platelet counts after cessation of treatment” value (reversibility of the anti-thrombopoietic effect)?
The value was “rebounded robustly”.

And the “percent of F-cells (fetal hemoglobin containing erythrocytes)” value (six patients, FIG. 10)?
Its value is “reduced the percent of F-cells”.

What about the “patients with reduction in symptom score (MPN-10)” value (week 12) of the same compound?
The value was 79%.

What about the “patients with reduction in symptom score by ≥50%” value (week 12) of the same compound?
Its value is 21%.

What about the “inflammatory cytokine S100A9” value (week 12, FIG. 4) of the same compound?
Its value is “generally decreased”.

And the “inflammatory cytokine RANTES” value (week 12, FIG. 5)?
The value was “generally decreased”.

What about the “inflammatory cytokine IL-8” value (week 12, FIG. 6) of the same compound?
Its value is “generally decreased”.

What about the “circulating growth factor VEGF” value (week 12, FIG. 7) of the same compound?
The value was “generally decreased”.

And the “circulating growth factor PDGF-BB” value (week 12, FIG. 8)?
The value was “generally decreased”.

What about the “patients with a decrease in spleen volume” value (week 12, evaluable N=14) of the same compound?
Its value is 50%.

What about the “patients with a decrease in spleen volume” value (week 24) of the same compound?
Its value is 75%.

And the “patients with a decrease in spleen volume by 35%” value (week 24)?
The value was 12.5%.

And the “patients with a decrease in symptom score” value (week 24)?
The value was 89%.

What about the “patients with a decrease in symptom score by ≥50%” value (week 24) of the same compound?
The value was 44%.

What about the “patients with improved scores of fatigue” value (within 14 days, at the lowest two doses) of the same compound?
The value was 8 of the first 16 patients.
